Several values for one entry are separate records, joined by “and”; a condition that tells them apart may be missing. Equal entries are not always repeated. Structures can show the parent of a compound that is named as a salt.
System: influenza virus A/California/07/09 (H1N1) pdm09
Parameters: species or system mice
Settings: mouse, in vivo

Row | SMILES | Mice rescued from infection | Index of protection % (100 mg/kg/day, dihydrate) | AST (average life span of animals) (po, 100 mg/kg/day) | Mortality by day: 7 (po, 100 mg/kg/day) | Mortality by day: 8 (po, 100 mg/kg/day) | Mortality by day: 10 (po, 100 mg/kg/day) | Mortality, % (po, 100 mg/kg/day) | Time after infection within which the drug must be administered for greatest efficacy
1 | CSc1nc2[nH]nc([N+](=O)[O-])c(=O)n2n1 [Triazavirin, sodium salt of 2-methylthio-6-nitro-1,2,4-triazolo[5,1-c]1,2,4-triazine-7-one, dihydrate] | 80% | 63% and 62.5% | 13.7 cyr. | 1 | 1 | 1 | 20.0% | 
2 | CCOC(=O)C1=C[C@@H](OC(CC)CC)[C@H](NC(C)=O)[C@@H](N)C1 [Tamiflu] |  |  |  |  |  |  |  | ≤ 24 h
